According to patent publication US20220380371A1, “MLL1 INHIBITORS AND ANTI-CANCER AGENTS” (NOVARTIS AG, priority 2019, published 2022):
Read-outs that look alike come from different tables or passages of the source.

Key:
[1] = molecular target: wild type MLL1 four-member complex (MLL1-4C) (Homo sapiens, UniProt Q03164); test: MLL1 LC-MS Assay; format: biochemical
Protocol: The compounds of the present disclosure were serially and separately diluted 3-fold in DMSO to obtain a total of eight or twelve concentrations. Then the test compounds at each concentration (120 nL of each) were transferred by Mosquito into white Proxiplate plus 384-well microplate (PerkinElmer). Solutions (6 μL) of 60 nM wild type MLL1 four-member complex (MLL1-4C) and 5 μM SAM in the reaction buffer (20 mM Tris-HCl, pH 8.0, 0.01% Tween 20, 1 mM DTT, 10 mM MgCl2, 0.01% BSA) were added to the wells that were then incubated with the test compound for 20 min. A 6 μL solution of 20 μM of the peptide substrate H3K4me0 (histone H3[1-21]-Biotin) in the reaction buffer was added to initiate each reaction. The final components in the reaction solution include 30 nM MLL1-4C, 2.5 μM SAM, and 10 μM H3K4me0 with varying concentration of the compounds. A positive control consisted of 30 nM MLL1-4C, 2.5 μM SAM, and 10 μM substrate in the absence of the test compound, and a negative control consisted of 2.5 μM SAM, and 10 μM substrate only. Each reaction was incubated at rt for 120 min, then stopped by addition of 3 μL per of quench solution (2.5% TFA with 320 nM d4-SAH). The reaction mixture was centrifuged (Eppendorf centrifuge 5810, Rotor A-4-62) for 2 min at 2000 rpm. The SAH production from the enzymatic assays were monitored by LC-MS/MS on an API 4000 triple quadrupole mass spec with Turbolon Spray (Applied Biosystem) coupled with Prominenece UFLC (Shimazu). The level of SAH production were then normalized based on the values coming from the positive and negative controls to give percent enzyme activities. The data were then fit to a dose response equation using the program Helios (Novartis) to get the IC50 values of the test compounds.

H3K4me3 in MV4-11 cells = test: MV4-11 H3K4me3 Cellular ELISA Assay; format: cell-based; details: Homo sapiens, MV4-11, 48 h
Protocol: MV4-11 H3K4me3 Cellular ELISA Assay
MV4-11 (ATCC® CRL-9591™) was cultured with RPMI1640 medium (Thermo Fisher Scientific, cat #11875) supplemented with 10% FBS (Thermo Fisher Scientific, cat #10099141) and 50 U/ml Penicillin-Streptomycin (Thermo Fisher Scientific, cat #10378016) in humidified incubator at 37° C., 5% CO2.
200 nL compounds dissolved in DMSO were serially diluted at 1:3 ratio for 12 points starting from 10 mM and dispensed into each wells of cell culture plates (PDL-coated ViewPlate-384 Black, FTC, PerkinElmer, #6007710). 3,750 MV4-11 cells in 40 μL culture medium were seeded into each well and treated with desired concentration for 48 hours. After treatment, wash cells with cold phosphate based buffer (PBS, pH 7.4) and aspirate the remaining PBS buffer. Crude histone lysate was extracted by 40 μL 0.5M HCl for 1 hour in 4° C. following neutralization by adding 32 μL neutralization buffer (0.5M Sodium phosphate dibasic, pH ˜12.5, 1.25 mM Dithiothreitol, Promega #V3151, Protease Inhibitor Cocktail, Sigma #8340) for each well. 5 μL and 20 μL of histone lysate was loaded to ELISA plate (384 Well Plates, PE HB, White, 6005620) for detection of total H3 and H3K4me3, respectively. Shake the plates gently in 4° C. for overnight. After histone binding, plates were washed with 80 μL PBS/T (PBS with 0.05% Tween-20) and blocked with 50 μL 3% BSA diluted in PBS/T per well for 1 hour. Incubate wells with primary antibody for 1 hour at room temperature using anti-H3K4me3 (CST #9727) and anti-total H3 (CST #9715) diluted 1:2000 in 3% BSA. Plates were then washed with PBS/T for 3 times and incubated with horseradish peroxidase (HRP) conjugated secondary antibody (CST #7074, 1:5000) for 1 hour at room temperature. The abundance of H3K4me3 and total H3 were measured by ECL substrates chemiluminescence (Pierce, #34080) on a plate reader (PerkinElmer EnVison 2104 Mutilable Reader). Percentage inhibition was calculated against DMSO control after normalization of H3K4me3 signal to H3 signal for individual samples. The data were then fit to a dose response curve using GraphPad Prism for IC50 calculation.

MV4-11 cells = test: MV4-11 6-Day Cell Growth CTG (CellTiter-Glo) Assay; format: cell-based; details: Homo sapiens, MV4-11, 144 h, MV4-11 cell growth CellTiter-Glo, 6 days
Protocol: MV4-11 6-Day Cell Growth CTG (CellTiter-Glo) Assay
Acute myeloid leukemia cell MV4-11 (ATCC® CRL-9591™) was cultured with RPMI 1640 medium (Thermo Fisher Scientific, cat #11875) supplemented with 10% FBS (Thermo Fisher Scientific, cat #10099141) in humidified incubator at 37° C., 5% CO2. To assess the effect of MLL1 inhibition on cell growth, the compound of the present invention was dissolved in DMSO and serially diluted at 1:3 for 12 points starting from 10 mM then 200 nL for the replicate of each dose per well was dispensed to Viewplate-384 Black (Perkin Elmer). Exponentially growing MV4-11 cells were seeded at the density of 300 cells per well in 40 μL to the plate, so the final compound working concentration starts from 50 μM. After 6 days, 40 μL CellTiter-Glo (Promega, cat #G7573) was added into the cell culture well and luminescence was read with Envision (Perkin Elmer) to determine the viable cells. The percentage inhibition was calculated against the samples treated with DMSO only and the data were used for dose response curve fitting in GraphPad Prism to get the IC50 of representative compound of present invention, which reflects the inhibition of MLL1 activity.

Row | Structure (SMILES) | IC50 ([1]; read-out: LCMS) | IC50 (H3K4me3 in MV4-11 cells) | IC50 (MV4-11 cells) | IC50 ([1]; read-out: MLL1 LCMS)
1 | CCNC(=O)CC[C@@]1(N)CCN(c2cc(Cl)cc(Br)c2Cn2cnc3c(N)ncnc32)C1 (single isomer, unassigned) [Example 36] | 0.05 to 0.1 µM | > 3 µM |  | 
2 | Nc1ncnc2c1ncn2Cc1c(Br)cc(Cl)cc1N1CC[C@](N)(CCc2nn[nH]n2)C1 (single isomer, unassigned) [Example 39] | < 0.05 µM | > 3 µM |  | 
3 | Nc1ncnc2c1ncn2Cc1c(N2CC[C@](N)(C(=O)NC3CC3)C2)ccc(F)c1C(O)C(F)(F)F (single isomer, unassigned) [Example 82] | > 0.1 µM | < 1.9 µM | 2 to 3 µM | 
4 | Nc1ncnc2c1ncn2Cc1c(Br)c(Cl)c2c(c1N1CC[C@](N)(C(=O)NC3CC3)C1)CCC2 (stereo in doubt) [Example 42] | 0.05 to 0.1 µM | < 1.9 µM | 2 to 3 µM | 
5 | Nc1ncnc2c1ncn2Cc1c(N2CC[C@](N)(C(=O)NC3CC3)C2)ccc(Cl)c1C1CC1 (stereo in doubt) [Example 97] | < 0.05 µM | > 3 µM | < 2 µM | 
6 | C#Cc1c(F)ccc(N2CC[C@](N)(C(=O)NC3CC3)C2)c1Cn1cnc2c(N)ncnc21 [Example 5] | 0.05 to 0.1 µM | < 1.9 µM | < 2 µM | 
7 | Nc1ncnc2c1ncn2Cc1c(N2CC[C@](N)(C(=O)NC3CC3)C2)ccc(F)c1CC(F)(F)F [Example 6] | < 0.05 µM | < 1.9 µM | < 2 µM | 
8 | Nc1ncnc2c1ncn2Cc1c(CC(F)(F)F)cc(Cl)cc1N1CC[C@](N)(C(=O)NC2CC2)C1 [Example 7] | 0.05 to 0.1 µM | < 1.9 µM | > 3 µM | 
9 | Nc1ncnc2c1ncn2Cc1c(N2CC[C@](N)(C(=O)NC3CC3)C2)ccc(F)c1C1CC1 [Example 8] | 0.05 to 0.1 µM | < 1.9 µM | < 2 µM | 
10 | C=Cc1c(F)ccc(N2CCC(N)(C(=O)NC3CC3)C2)c1Cn1cnc2c(N)ncnc21 (stereo not shown) [Example 9] | > 0.1 µM | < 1.9 µM | < 2 µM | 
11 | CCc1c(F)ccc(N2CC[C@](N)(C(=O)NC3CC3)C2)c1Cn1cnc2c(N)ncnc21 [Example 10] | < 0.05 µM | < 1.9 µM | < 2 µM | 
12 | Cc1c(C(F)(F)F)ccc(N2CC[C@](N)(C(=O)NC3CC3)C2)c1Cn1cnc2c(N)ncnc21 [Example 11] | < 0.05 µM | < 1.9 µM | < 2 µM | 
13 | CCc1c(C(F)(F)F)ccc(N2CC[C@](N)(C(=O)NC3CC3)C2)c1Cn1cnc2c(N)ncnc21 [Example 12] | 0.05 to 0.1 µM | < 1.9 µM | < 2 µM | 
14 | Nc1ncnc2c1ncn2Cc1c(N2CC[C@](N)(C(=O)NC3CC3)C2)ccc(F)c1Br [Example 13] | < 0.05 µM | < 1.9 µM | < 2 µM | 
15 | COc1ccc(Br)c(Cn2cnc3c(N)ncnc32)c1N1CC[C@](N)(C(=O)NC2CC2)C1 [Example 21] | 0.05 to 0.1 µM | > 3 µM |  | 
16 | Nc1ncnc2c1ncn2Cc1c(Br)cc(Cl)cc1N1CC[C@](N)(c2cc(C(F)(F)F)ccn2)C1 [Example 27] | < 0.05 µM | > 3 µM |  | 
17 | Nc1ncnc2c1ncn2Cc1c(Br)cc(Cl)cc1N1CC[C@](N)(COCC(=O)NC2CC2)C1 [Example 30] | > 0.1 µM | > 3 µM |  | 
18 | CCOC(=O)CC[C@@]1(N)CCN(c2cc(Cl)cc(Br)c2Cn2cnc3c(N)ncnc32)C1 [Example 34] | > 0.1 µM | < 1.9 µM |  | 
19 | CCc1cc(Cl)cc(N2CC[C@](N)(CCc3nnc(NC)s3)C2)c1Cn1cnc2c(N)ncnc21 [Example 35] | 0.05 to 0.1 µM | > 3 µM |  | 
20 | NC(=O)CCC1(N)CCN(c2cc(Cl)cc(Br)c2Cn2cnc3c(N)ncnc32)C1 (stereo not shown) [Example 37] | > 0.1 µM | > 3 µM |  | 
21 | CCNC(=O)CC[C@@]1(N)CCN(c2cc(Cl)cc(CC)c2Cn2cnc3c(N)ncnc32)C1 [Example 38] | < 0.05 µM | > 3 µM |  | 
22 | CCc1cc(Cl)cc(N2CC[C@](N)(CCc3nn[nH]n3)C2)c1Cn1cnc2c(N)ncnc21 [Example 40] | > 0.1 µM | > 3 µM |  | 
23 | COC(=O)NCc1c(F)ccc(N2CC[C@](N)(C(=O)NC3CC3)C2)c1Cn1cnc2c(N)ncnc21 [Example 71] | < 0.05 µM | > 3 µM |  | 
24 | CN(C)Cc1c(Cl)cc(Cl)c(N2CC[C@](N)(C(=O)NC3CC3)C2)c1Cn1cnc2c(N)ncnc21 [Example 74] | > 0.1 µM | > 3 µM |  | 
25 | CN(C)Cc1cc(Cl)c(Cl)c(N2CC[C@](N)(C(=O)NC3CC3)C2)c1Cn1cnc2c(N)ncnc21 [Example 89, (R)-3-amino-1-(2-((6-amino-9H-purin-9-yl)methyl)-5,6-dichloro-3-((dimethylamino)methyl)phenyl)-N-cyclopropylpyrrolidine-3-carboxamide] | > 0.1 µM | > 3 µM |  | 
26 | Cn1nnc([C@@]2(N)CCN(c3cc(Cl)cc(Br)c3Cn3cnc4c(N)ncnc43)C2)n1 [Example 91, (R)-9-(2-(3-amino-3-(2-methyl-2H-tetrazol-5-yl)pyrrolidin-1-yl)-6-bromo-4-chlorobenzyl)-9H-purin-6-amine] | 0.05 to 0.1 µM | > 3 µM |  | 
27 | Cc1ccc(Cl)c(Cn2cnc3c(N)ncnc32)c1N1CCC(N)(C(=O)NC2CC2)C1 (stereo not shown) [Example 157] |  | > 3 µM |  | > 0.1 µM
28 | Nc1ncnc2c1ncn2Cc1c(N2CC[C@@](N)(C(=O)NC3CC3)C2)ccc2ccccc12 [Example 166] |  | < 1.9 µM |  | 0.05 to 0.1 µM
29 | Nc1ncnc2c1ncn2Cc1c(N2CC[C@](N)(C(=O)NC3CC3)C2)ccc2cc(Br)ccc12 [Example 167] |  | < 1.9 µM |  | < 0.05 µM
